Experimental data published in PMC5508536 (Bioorganic & medicinal chemistry letters, 2017).

Columns and labels:
[1] = cited from earlier work
rat M5 = target: T1, rat M5 (Rattus norvegicus, UniProt P08911); test: rat M5 intracellular calcium mobilization assay; format: cell-based
T1 sequence (P08911 1-531): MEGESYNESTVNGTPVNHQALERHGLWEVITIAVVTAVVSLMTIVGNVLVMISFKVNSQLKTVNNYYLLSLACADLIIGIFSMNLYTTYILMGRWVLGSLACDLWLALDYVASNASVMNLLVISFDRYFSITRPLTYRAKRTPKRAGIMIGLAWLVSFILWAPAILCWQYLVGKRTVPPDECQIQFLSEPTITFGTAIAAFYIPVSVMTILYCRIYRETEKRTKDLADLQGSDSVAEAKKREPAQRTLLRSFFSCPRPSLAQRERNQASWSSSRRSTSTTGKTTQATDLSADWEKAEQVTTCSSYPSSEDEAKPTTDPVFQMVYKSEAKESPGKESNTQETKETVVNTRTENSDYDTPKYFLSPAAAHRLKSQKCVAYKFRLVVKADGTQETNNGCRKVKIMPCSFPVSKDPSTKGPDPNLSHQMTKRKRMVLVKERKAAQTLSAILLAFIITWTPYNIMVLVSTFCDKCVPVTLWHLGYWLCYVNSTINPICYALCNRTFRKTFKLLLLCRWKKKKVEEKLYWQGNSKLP

[2] = rat; cited from earlier work

With `O=C(c1ccc(F)c(F)c1)N1CCN2C(=O)c3ccccc3[C@@]12c1ccc(Cl)cc1` [compound 1] as the compound, how does the “elimination half-life t1/2” value ([1]; rat) read?
Its value is 80 h.

For `O=C(c1ccc(F)c(F)c1)N1CCN2C(=O)c3ccccc3[C@@]12c1ccc(N2CCCC(F)(F)C2)cc1` [4d], which “rat M5 potency relative to hM5” value (rat M5) is on record?
Its value is at most 2 fold.

For `O=C(c1ccc(F)c(F)c1)N1CCN2C(=O)c3ccccc3[C@@]12c1ccc(N2CCC(F)(F)CC2)cc1` [4f], which “rat M5 potency relative to hM5” value (rat M5) is on record?
The value was at most 2 fold.

Which CLp ([1]; rat PK) does the source give for `COc1ccc([C@@]23c4ccccc4C(=O)N2CCN3C(=O)c2cc(F)c(F)c(F)c2)cc1C` [compound 2] here?
Its CLp is over 70 mL/min/kg.

And the CNS penetration [2]?
The CNS penetration was “limited CNS penetration”.
